pIC50: −log10 of the molar value.
Test system: FGFR
Test: Kinase inhibition, cell-free enzymatic assay
Format: biochemical
Settings: 1 mM ATP
Method: All data reported as IC50 values for kinase inhibition in cell-free enzymatic assays. Values determined @ 1 mM ATP.

Compound `Cc1ccc(F)c(NC(=O)Nc2ccc(-c3cccc4[nH]nc(N)c34)cc2)c1` [RTK Inhibitor, N-[4-(3-amino-1H-indazol-4-yl)phenyl]-N′-(2-fluoro-5-methylphenyl) urea] has a pIC50 of less than 4.90.
